This note sets out measurements from ChEMBL document CHEMBL1158334, “Two new chymotrypsin inhibitors isolated from the Cyanobacterium Microcystis aeruginosa NIES-88” (J Nat Prod, 2005).

Usually IC50 stands for the concentration that inhibits the measured activity by half. Read a low IC50 as higher potency.

Experiment [1] is described as follows: Inhibition of chymotrypsin.
Experiment [2] can be described thus: Inhibition of trypsin.

SMILES strings stand for the structures.

On to `CC[C@H](C)[C@@H]1NC(=O)[C@H](Cc2ccc(OC)cc2)N(C)C(=O)[C@H]([C@@H](C)CC)N2C(=O)[C@H](CC[C@H]2O)NC(=O)[C@H](CCc2ccc(O)cc2)NC(=O)[C@@H](NC(=O)[C@H](CCc2ccc(O)cc2)NC(=O)[C@@H](COS(=O)(=O)O)OC)[C@@H](C)OC1=O` [OSCILLAPEPTIN], for which the IC50 in experiment [1] is 1.9 µM; in experiment [2], over 100 µM.
The matching figures for `CCCCCC(=O)N[C@@H](CC(=O)O)C(=O)N[C@@H]1C(=O)N[C@@H](CCCCN)C(=O)N[C@H]2CC[C@@H](O)N(C2=O)[C@@H]([C@@H](C)CC)C(=O)N(C)[C@@H](Cc2ccc(O)cc2)C(=O)N[C@@H](C(C)C)C(=O)O[C@@H]1C` [MICROPEPTIN SD944]: over 100 µM and 8.5 µM.
The matching figures for `CCCC(=O)N[C@@H](Cc1ccc(O)cc1)C(=O)N[C@@H](CCC(=O)N[C@@H]1C(=O)N[C@@H](Cc2ccc(O)cc2)C(=O)N[C@H]2CC[C@@H](O)N(C2=O)[C@@H](C(C)C)C(=O)N(C)[C@@H](Cc2ccccc2)C(=O)N[C@@H]([C@@H](C)CC)C(=O)O[C@@H]1C)C(=O)O` [MICROPEPTIN 88 C]: 4.6 µM and over 100 µM.
In the same order, the values of `CC(C)[C@@H]1NC(=O)[C@H](Cc2ccc(O)cc2)N(C)C(=O)[C@H](Cc2ccccc2)N2C(=O)[C@H](CC[C@H]2O)NC(=O)[C@H](CCCNC(=N)N)NC(=O)[C@@H](NC(=O)[C@@H](O)COS(=O)(=O)O)[C@@H](C)OC1=O` [MICROPEPTIN 90] are over 100 µM and 0.02 µM.
As for `CCCCCCCC(=O)N[C@@H](CCC(=O)O)C(=O)N[C@@H]1C(=O)N[C@@H](CCCCN)C(=O)N[C@H]2CC[C@@H](O)N(C2=O)[C@@H](CC(C)C)C(=O)N(C)[C@@H](Cc2ccc(O)cc2)C(=O)N[C@@H](C(C)C)C(=O)O[C@@H]1C` [MICROPEPTIN A], the IC50 is over 100 µM in experiment [1] and 0.07 µM in experiment [2].
The matching figures for `CC(C)CC(NC(=O)[C@H](O)COS(=O)(=O)O)C(=O)N[C@@H]1C(=O)N[C@@H](CCCNC(=N)N)C(=O)N[C@H]2CC[C@@H](O)N(C2=O)[C@@H](CC(C)C)C(=O)N(C)[C@@H](Cc2ccc(O)cc2)C(=O)N[C@@H](C(C)C)C(=O)O[C@@H]1C` (single isomer, unassigned): over 100 µM and 0.001 µM.
In the same order, the values of `CC[C@H](C)[C@H](NC(=O)[C@H](O)Cc1ccc(O)cc1)C(=O)N[C@@H](CCO)C(=O)N[C@@H]1C(=O)N[C@@H](CCO)C(=O)N[C@H]2CC[C@@H](O)N(C2=O)[C@@H](Cc2ccccc2)C(=O)N(C)[C@@H](Cc2ccc(O)cc2)C(=O)N[C@@H](C(C)C)C(=O)O[C@@H]1C` [NOSTOCYCLIN] are over 100 µM and over 100 µM.
Take `CCCC(=O)N[C@@H](Cc1ccc(O)cc1)C(=O)N[C@@H](CCC(=O)N[C@@H]1C(=O)N[C@@H](CCC(=O)O)C(=O)N[C@H]2CC[C@@H](O)N(C2=O)[C@@H](C(C)C)C(=O)N(C)[C@@H](Cc2ccccc2)C(=O)N[C@@H]([C@@H](C)CC)C(=O)O[C@@H]1C)C(=O)O` [MICROPEPTIN 88 B]: the IC50 in experiment [1] and in experiment [2] was over 100 µM throughout.
`CCCCCC(=O)N[C@@H](CC(=O)O)C(=O)N[C@@H]1C(=O)N[C@@H](CCCNC(=N)N)C(=O)N[C@H]2CC[C@@H](O)N(C2=O)[C@@H]([C@@H](C)CC)C(=O)N(C)[C@@H](CC(=O)c2ccccc2N)C(=O)N[C@@H](C(C)C)C(=O)O[C@@H]1C` [MICROPEPTIN SD999]: the IC50 in experiment [1] was over 100 µM; in experiment [2], 4 µM.
As for `CCCC(=O)N[C@@H](Cc1ccc(O)cc1)C(=O)N[C@@H](CCC(=O)N[C@@H]1C(=O)N[C@@H](Cc2ccc(O)cc2)C(=O)N[C@H]2CC[C@@H](O)N(C2=O)[C@@H](C(C)C)C(=O)N(C)[C@@H](Cc2ccccc2)C(=O)N[C@@H]([C@@H](C)CC)C(=O)O[C@@H]1C)C(=O)OC` [MICROPEPTIN 88 F], the figures for the IC50 in experiment [1] and in experiment [2] were 3.4 µM and over 100 µM, respectively.
For the compound `CCCCCC(=O)N[C@@H](CC(=O)O)C(=O)N[C@@H]1C(=O)N[C@@H](Cc2ccc(O)cc2)C(=O)N[C@H]2CC[C@@H](O)N(C2=O)[C@@H]([C@@H](C)CC)C(=O)N(C)[C@@H](Cc2c[nH]c3ccccc23)C(=O)N[C@@H](C(C)C)C(=O)O[C@@H]1C` [MICROPEPTIN SD1002], the IC50 is 3.2 µM in experiment [1] and over 100 µM in experiment [2].
As to `CC[C@H](C)[C@@H]1NC(=O)[C@H](Cc2ccccc2)N(C)C(=O)[C@H](C(C)C)N2C(=O)[C@H](CC[C@H]2O)NC(=O)[C@H](Cc2ccc(O)cc2)NC(=O)[C@@H](NC(=O)CC[C@H](NC(=O)[C@H](Cc2ccc(O)cc2)NC(C)=O)C(=O)O)[C@@H](C)OC1=O` [MICROPEPTIN 88 Y], the figures for the IC50 in experiment [1] and in experiment [2] were 1.3 µM and over 100 µM, respectively.
In the same order, the values of `CCCC(=O)N[C@@H](Cc1ccc(O)cc1)C(=O)N[C@@H](CCC(=O)N[C@@H]1C(=O)N[C@@H](C[C@H]2C=C[C@H](O)CC2)C(=O)N[C@H]2CC[C@@H](O)N(C2=O)[C@@H](C(C)C)C(=O)N(C)[C@@H](Cc2ccccc2)C(=O)N[C@@H]([C@@H](C)CC)C(=O)O[C@@H]1C)C(=O)O` [MICROPEPTIN 88 D] are 9 µM and over 100 µM.
Regarding `CC[C@H](C)[C@@H]1NC(=O)[C@H](Cc2ccc(O)cc2)N(C)C(=O)[C@H](Cc2ccccc2)N2C(=O)[C@H](CC[C@H]2O)NC(=O)[C@H](Cc2ccccc2)NC(=O)[C@@H](NC(=O)[C@@H](O)COP(=O)(O)O)[C@@H](C)OC1=O` [MICROPEPTIN T 20], the IC50 in experiment [1] is 2500 µM; in experiment [2], over 100 µM.
In the same order, the values of `CCCC(=O)N[C@@H](Cc1ccc(O)cc1)C(=O)N[C@@H](CCC(=O)N[C@@H]1C(=O)N[C@@H](CC(C)C)C(=O)N[C@H]2CC[C@@H](O)N(C2=O)[C@@H](C(C)C)C(=O)N(C)[C@@H](Cc2ccccc2)C(=O)N[C@@H]([C@@H](C)CC)C(=O)O[C@@H]1C)C(=O)O` [MICROPEPTIN 88 E] are 5 µM and over 100 µM.
The matching figures for `CC[C@H](C)[C@@H]1NC(=O)[C@H](Cc2ccc(O)cc2)N(C)C(=O)[C@H]([C@H](C)O)N2C(=O)[C@H](CC[C@H]2O)NC(=O)[C@H](CC(C)C)NC(=O)[C@@H](NC(=O)[C@H](CCC(N)=O)NC(=O)[C@H](CCc2ccc(O)cc2)NC(=O)[C@H](O)CO)[C@@H](C)OC1=O` [OSCILLAPEPTIN G]: 4 µM and over 100 µM.
The matching figures for `CCCCCC(=O)N[C@@H](CC(=O)O)C(=O)N[C@@H]1C(=O)N[C@@H](Cc2ccc(O)cc2)C(=O)N[C@H]2CC[C@@H](O)N(C2=O)[C@@H]([C@@H](C)CC)C(=O)N(C)[C@@H](Cc2ccc(O)cc2)C(=O)N[C@@H](C(C)C)C(=O)O[C@@H]1C` [MICROPEPTIN SD979]: 2.5 µM and over 100 µM.
